Results from US20240325544A1, “CATIONIC LIPID FOR COVALENT MODIFICATION OF PEPTIDES” (PharmalN Corporation, priority 2023, published 2024).
Marks after values point to notes of the source that are not given here. Bridge positions count the residues as written; N and C are the ends. Square brackets hold non-standard residues; d marks the D form. Peptide text beside a SMILES is read from it. * marks the point of attachment. Palmitoyl = CCCCCCCCCCCCCCCC(=O)*; Dab = NCC[C@H](N)C(=O)O; Dap = NC[C@H](N)C(=O)O; AEEA = NCCOCCOCC(=O)O

Key:
Sprague Dawley rats = details: rat, in vivo, sc
Method: Animal care and treatment: Male Sprague Dawley rats aged 8 to 10 weeks (Charles River, Hollister, CA) were housed in groups of two (n=3/group) in disposable polypropylene cages with rodent cob bedding at the PharmaIN animal facility. Animals had ad libitum access to food (LabDiet Pico Rodent #5053; Animal Specialties, Woodburn, OR) and water. Temperature (68-74° F.) and humidity (30-60%) were maintained within a controlled range, and a 12-hour light/dark cycle was used. […] Animals were monitored closely during the first 4 hours following injection, then hourly throughout the rest of the day for any signs of swelling or discoloration (dilatory side effect), lethargy (side effect), ataxia (ataxia is used as a marker of toxicity). Rats were allowed a 1-week wash-out period between bolus doses. Following final observations, animals were humanely euthanized through CO2 asphyxiation.

[1] = mouse, in vivo, sc, 1 mg/kg
Method: FIGS. 1A-1B: PK/PD Profiles for single subcutaneous (SC) injection of native CNP (SEQ ID NO: 32), SEQ ID NO: 31, and SEQ ID NO: 29 at 1.0 mg/kg (0.45, 0.33, and 0.33 μmol/kg, respectively) in mice. Error bars represent standard error of the mean. FIG. 1A) Plasma CNP [mean (SEM); n=5] in CD-1 mice after subcutaneous administration of 1.0 mg/kg of native CNP (SEQ ID NO: 32), SEQ ID NO: 31, and SEQ ID NO: 29 (0.45, 0.33, and 0.33 μmol/kg, respectively) in buffer. […] Plasma CNP in CD-1 mice was measured by CNP ELISA kit from Phoenix Pharmaceuticals (EKE-012-03, Burlingame, CA).
The animals were kept in PharmaIN animal facility with controlled temperature (68-74° F.) and humidity (30-60%), and a 12-hour light/dark cycle. […] Lead buffer was used to formulate or dissolve all test articles on the day of administration. […] Biochemical analysis: For pharmacokinetic study, plasma aliquots were thawed at 4° C. then analyzed using a commercially available CNP ELISA kit from Phoenix Pharmaceuticals (cat #EKE-012-03), which detects the cyclic structure of CNP and all CNP derivatives with the same level of reactivity to the ELISA kit. […] For pharmacodynamic or bioactivity study of cGMP, plasma aliquots were thawed at 4° C. then analyzed using a commercially available cGMP kit from Abcam (ab133052, Waltham, MA).

cGMP = assay: Plasma cGMP after SC bolus of natriuretic peptides in CD-1 mice (pharmacodynamics, Table 3); format: in vivo; details: SC bolus 1.0 mg/kg (≤0.45 μmol/kg), baseline 10 +/−8 pmol/ml, n = 3-5
Procedure, shortened: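 Peptides given SC in sterile water; retro-orbital blood at 2 and 6 h post-dose (two bleeds per mouse), K2EDTA plasma. Plasma cGMP by commercial immunoassay kit; ANP, BNP or CNP plasma levels by peptide-specific ELISA.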

[2] = test system: inflammatory cytokines (MCP1, IL-6, TNFα) in BALF; assay: LPS ALI model: inflammatory cytokines in BALF by ELISA (Table 4); format: in vivo, mice; details: LPS 0.05 mg/kg IT; SEQ 0.3 mg/kg SC, Sivelestat 150 mg/kg IP; 24 hours
Method: Animal care and treatment: Male C57BL/6J mice (6 weeks-old) were purchased from Kyudo (Saga, Japan) and maintained under a 12-hour light/12-hour dark cycle with free access to water and standard mouse diet (MF diet, Oriental Yeast Co., Ltd. Tokyo, Japan). Drug administration: Mice were administered LPS (0.05 mg/kg IT; Sigma-Aldrich) followed by treatment with various test articles, including Sivelestat (150 mg/kg; Nipro, Osaka, Japan), an inhibitor of human neutrophil elastase, injected IP as a positive control, and cationic alkyl modified CNPs (SEQ ID NO: 31, 29, and 30; 0.3 mg/kg (0.1 μmol/kg) SC). The test articles were administered immediately after LPS injection. Additionally, a normal control (NC) group without LPS administration and a Control group receiving only LPS without any test article were included. After 24 hours, the mice were euthanized under isoflurane anesthesia and BALF was harvested. Biochemical analysis: ALI and ARDS are often characterized by increased levels of inflammatory cytokines, including Macrophage Chemoattractant Protein-1 (MCP1), Interleukin-6 (IL-6), and […] (TNFα), in BALF. Decreases in their concentration can indicate the resolution of ALI/ARDS. Concentration of each cytokine (MCP1, IL-6, and TNFα) was measured using an ELISA kit (R&D SYSTEMS, Minneapolis M N). […] Statistical analysis was based on Dunnett's test performed by using GraphPad. (n=5, 8, 8, 8, and 8; NC, Control, PC, SEQ ID NO: 31, SEQ ID NO: 29). *** P<0.001, ** P<0.01, * P<0.05 vs each corresponding Control group.

Compound: CCCCCCCCCCCCCCCC(=O)NCCOCCOCC(=O)NCCOCCOCC(=O)NCCOCCOCC(=O)N[C@@H](CN)C(=O)N[C@@H](CN)C(=O)NCC(=O)N[C@@H](CC(C)C)C(=O)N[C@@H](CO)C(=O)N[C@@H](CCCCN)C(=O)NCC(=O)N[C@H]1CSSC[C@@H](C(=O)O)NC(=O)CNC(=O)[C@H](CC(C)C)NC(=O)CNC(=O)[C@H](CO)NC(=O)[C@H](CCC(N)=O)NC(=O)[C@H](CO)NC(=O)CNC(=O)[C@H]([C@@H](C)CC)NC(=O)[C@H](CCCNC(=N)N)NC(=O)[C@H](CC(=O)O)NC(=O)[C@H](CC(C)C)NC(=O)[C@H](CCCCN)NC(=O)[C@H](CC(C)C)NC(=O)CNC(=O)[C@H](Cc2ccccc2)NC1=O [SEQ ID NO: 31] ({Palmitoyl-AEEA-AEEA-AEEA}-[Dap][Dap]GLSKGCFGLKLDRIGSQSGLGC-OH; disulfide 8-24; C-terminus assumed)
- Swelling and/or Discoloration in n = 3 (Sprague Dawley rats): (3.3) μmol/kg
- Increase of baseline plasma CNP levels [1]: over 5 fold
- Plasma concentration of cGMP, 2 hr (cGMP): 98.34**** pmol/mL
- Plasma concentration of cGMP, 6 hr (cGMP): 53.62*** pmol/mL
- IL-6 in BALF [2]: 56* % Of Control
- MCP1 in BALF [2]: 50** % Of Control
- TNFα in BALF [2]: 28** % Of Control

Compound: CCCCCCCCCCCCCCCC(=O)NCCOCCOCC(=O)NCCOCCOCC(=O)NCCOCCOCC(=O)N[C@@H](CCN)C(=O)N[C@@H](CCN)C(=O)NCC(=O)N[C@@H](CC(C)C)C(=O)N[C@@H](CO)C(=O)N[C@@H](CCCCN)C(=O)NCC(=O)N[C@H]1CSSC[C@@H](C(=O)O)NC(=O)CNC(=O)[C@H](CC(C)C)NC(=O)CNC(=O)[C@H](CO)NC(=O)[C@H](CCC(N)=O)NC(=O)[C@H](CO)NC(=O)CNC(=O)[C@H]([C@@H](C)CC)NC(=O)[C@H](CCCNC(=N)N)NC(=O)[C@H](CC(=O)O)NC(=O)[C@H](CC(C)C)NC(=O)[C@H](CCCCN)NC(=O)[C@H](CC(C)C)NC(=O)CNC(=O)[C@H](Cc2ccccc2)NC1=O [SEQ ID NO: 29] ({Palmitoyl-AEEA-AEEA-AEEA}-[Dab][Dab]GLSKGCFGLKLDRIGSQSGLGC-OH; disulfide 8-24; C-terminus assumed)
- Swelling and/or Discoloration in n = 3 (Sprague Dawley rats): (3.1) μmol/kg
- Increase of baseline plasma CNP levels [1]: > 10 fold
- Plasma concentration of cGMP, 2 hr (cGMP): 157.31* pmol/mL
- Plasma concentration of cGMP, 6 hr (cGMP): 65.65* pmol/mL
- IL-6 in BALF [2]: 76 % Of Control
- MCP1 in BALF [2]: 69 % Of Control
- TNFα in BALF [2]: 39** % Of Control
